In PubChem BioAssay AID248 (DTP/NCI, 2004):
Several values for one entry are separate records, joined by “and”; a condition that tells them apart may be missing. Equal entries are not always repeated. Inconclusive results and toxic doses are left out. No stated cut-off is given here; in the data, active means T/C of 150% or more; inactive means T/C below 125%.

System: L1210 leukemia ip in BDF1 mice, survival T/C
Experiment: NCI In Vivo Anticancer Drug Screen. Data for tumor model L1210 Leukemia (intraperitoneal) in B6D2F1 (BDF1) mice
Details: endpoint: mean survival time, higher = longer survival
How it was run: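 Read-out is survival time, reported as the treated-group measurement over the vehicle-control measurement.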

[1] = dose: 100.0 mg/kg/injection, schedule: Q01DX009 (ip), vehicle: saline with Tween-80
[2] = dose: 100.0 mg/kg/injection, schedule: Q04DX003 (ip), vehicle: saline with Tween-80
[3] = dose: 200.0 mg/kg/injection, schedule: Q01DX009 (ip), vehicle: saline with Tween-80
[4] = dose: 200.0 mg/kg/injection, schedule: Q04DX003 (ip), vehicle: saline with Tween-80
[5] = dose: 400.0 mg/kg/injection, schedule: Q01DX009 (ip), vehicle: saline with Tween-80
[6] = dose: 75.0 mg/kg/injection, schedule: Q01DX001 (ip), vehicle: saline
[7] = dose: 150.0 mg/kg/injection, schedule: Q01DX001 (ip), vehicle: saline
[8] = dose: 6.25 mg/kg/injection, schedule: Q01DX009 (ip), vehicle: saline
[9] = dose: 12.5 mg/kg/injection, schedule: Q01DX009 (ip), vehicle: saline
[10] = dose: 100.0 mg/kg/injection, schedule: Q01DX009 (ip), vehicle: Klucel (hydroxypropylcellulose) (HPC)
[11] = dose: 200.0 mg/kg/injection, schedule: Q01DX009 (ip), vehicle: Klucel (hydroxypropylcellulose) (HPC)
[12] = dose: 400.0 mg/kg/injection, schedule: Q01DX009 (ip), vehicle: Klucel (hydroxypropylcellulose) (HPC)
[13] = dose: 100.0 mg/kg/injection, schedule: Q01DX001 (ip), vehicle: Klucel (hydroxypropylcellulose) (HPC)
[14] = dose: 200.0 mg/kg/injection, schedule: Q01DX001 (ip), vehicle: Klucel (hydroxypropylcellulose) (HPC)
[15] = dose: 400.0 mg/kg/injection, schedule: Q01DX001 (ip), vehicle: Klucel (hydroxypropylcellulose) (HPC)
[16] = dose: 100.0 mg/kg/injection, schedule: Q01DX001 (ip), vehicle: saline
[17] = dose: 200.0 mg/kg/injection, schedule: Q01DX001 (ip), vehicle: saline
[18] = dose: 400.0 mg/kg/injection, schedule: Q01DX001 (ip), vehicle: saline

Measured: T/C

COc1cc(C=Nc2ccc(Cl)cc2)ccc1O
inactive: [1] 97 % of control | [2] 120 % of control | [3] 94 % of control | [4] 96 % of control | [5] 101 % of control | dose: 400.0 mg/kg/injection, schedule: Q04DX003 (ip), vehicle: saline with Tween-80 103 % of control

CC(=O)Nc1ccnc(=O)[nH]1
inactive: [6] 106 % of control | [7] 95 % of control

Cc1cc(=O)[nH]c2c(C)cc(-c3cc(C)c4[nH]c(=O)cc(C)c4c3)cc12
inactive: [1] 101 % of control | dose: 100.0 mg/kg/injection, schedule: Q04DX003 (ip), vehicle: saline 98 % of control | [3] 97 % of control | dose: 200.0 mg/kg/injection, schedule: Q04DX003 (ip), vehicle: saline 91 % of control | [5] 92 % of control | dose: 400.0 mg/kg/injection, schedule: Q04DX003 (ip), vehicle: saline 98 % of control

CCN(Cc1ccncc1)C(=O)C(O)(c1ccccc1)c1ccccc1
inactive: dose: 100.0 mg/kg/injection, schedule: Q01DX001 (ip), vehicle: saline with Tween-80 93 % of control | dose: 200.0 mg/kg/injection, schedule: Q01DX001 (ip), vehicle: saline with Tween-80 88 % of control | dose: 400.0 mg/kg/injection, schedule: Q01DX001 (ip), vehicle: saline with Tween-80 87 % of control

Cc1cc(C)c(C2=C(CC(=O)O)C(=O)c3ccccc3C2=O)c(C)c1
inactive: dose: 100.0 mg/kg/injection, schedule: Q04DX003 (ip), vehicle: gum acacia 92 % of control | dose: 200.0 mg/kg/injection, schedule: Q04DX003 (ip), vehicle: gum acacia 90 % of control | dose: 400.0 mg/kg/injection, schedule: Q04DX003 (ip), vehicle: gum acacia 90 % of control

CN(C)c1ccc(C=Nc2ccc(N(C)C)cc2)cc1
inactive: dose: 100.0 mg/kg/injection, schedule: Q01DX001 (ip), vehicle: carboxymethylcellulose (CMC) 105 % of control | dose: 100.0 mg/kg/injection, schedule: Q01DX009 (ip), vehicle: carboxymethylcellulose (CMC) 96 % of control and 92 % of control | dose: 100.0 mg/kg/injection, schedule: Q04DX002 (ip), vehicle: carboxymethylcellulose (CMC) 102 % of control and 104 % of control | dose: 100.0 mg/kg/injection, schedule: Q04DX003 (ip), vehicle: carboxymethylcellulose (CMC) 102 % of control | dose: 200.0 mg/kg/injection, schedule: Q01DX001 (ip), vehicle: carboxymethylcellulose (CMC) 93 % of control | dose: 200.0 mg/kg/injection, schedule: Q01DX009 (ip), vehicle: carboxymethylcellulose (CMC) 86 % of control and 88 % of control | dose: 200.0 mg/kg/injection, schedule: Q04DX002 (ip), vehicle: carboxymethylcellulose (CMC) 98 % of control and 105 % of control | dose: 200.0 mg/kg/injection, schedule: Q04DX003 (ip), vehicle: carboxymethylcellulose (CMC) 92 % of control | dose: 400.0 mg/kg/injection, schedule: Q01DX001 (ip), vehicle: carboxymethylcellulose (CMC) 88 % of control | dose: 400.0 mg/kg/injection, schedule: Q01DX009 (ip), vehicle: carboxymethylcellulose (CMC) 86 % of control and 92 % of control | dose: 400.0 mg/kg/injection, schedule: Q04DX002 (ip), vehicle: carboxymethylcellulose (CMC) 97 % of control and 100 % of control | dose: 400.0 mg/kg/injection, schedule: Q04DX003 (ip), vehicle: carboxymethylcellulose (CMC) 92 % of control

CCc1ccc(P(=O)(O)O)cc1
inactive: [6] 94 % of control | [7] 103 % of control | dose: 300.0 mg/kg/injection, schedule: Q01DX001 (ip), vehicle: saline 88 % of control

O=[N+]([O-])C(CO)(CO)CC(F)(F)F
inactive: dose: 3.13 mg/kg/injection, schedule: Q01DX009 (ip), vehicle: saline 96 % of control | [8] 98 % of control | [9] 102 % of control

c1ccc(CNC(Cc2ccccc2)c2ccc(OCc3ccccc3)cc2)cc1 (configuration not stated)
inactive: [10] 93 % of control | [11] 89 % of control | [12] 89 % of control

O=C(Nc1ccc(F)cc1)OCCc1ccccn1
inactive: [13] 96 % of control | [10] 98 % of control and 101 % of control | dose: 100.0 mg/kg/injection, schedule: Q04DX002 (ip), vehicle: Klucel (hydroxypropylcellulose) (HPC) 94 % of control and 99 % of control | dose: 100.0 mg/kg/injection, schedule: Q04DX003 (ip), vehicle: Klucel (hydroxypropylcellulose) (HPC) 113 % of control | [14] 101 % of control | [11] 101 % of control and 106 % of control | dose: 200.0 mg/kg/injection, schedule: Q04DX002 (ip), vehicle: Klucel (hydroxypropylcellulose) (HPC) 94 % of control and 96 % of control | dose: 200.0 mg/kg/injection, schedule: Q04DX003 (ip), vehicle: Klucel (hydroxypropylcellulose) (HPC) 96 % of control | [15] 91 % of control | [12] 94 % of control and 91 % of control | dose: 400.0 mg/kg/injection, schedule: Q04DX002 (ip), vehicle: Klucel (hydroxypropylcellulose) (HPC) 97 % of control and 105 % of control | dose: 400.0 mg/kg/injection, schedule: Q04DX003 (ip), vehicle: Klucel (hydroxypropylcellulose) (HPC) 99 % of control

Cc1cccc(NC(=S)NCc2ccco2)c1
inactive: [10] 96 % of control | [11] 93 % of control | [12] 91 % of control

CC(C)(C)NNC(=O)c1ccccc1
inactive: dose: 75.0 mg/kg/injection, schedule: Q04DX003 (ip), vehicle: saline with Tween-80 106 % of control

CC(=O)c1ccc(N2CCCCC2)cc1
inactive: dose: 50.0 mg/kg/injection, schedule: Q01DX001 (ip), vehicle: saline 96 % of control | [16] 94 % of control | [17] 100 % of control | [18] 94 % of control

COc1ccc(C(=O)N(N)C2CCCCC2)cc1
inactive: [2] 93 % of control | [4] 102 % of control

CCC1CSC(=S)N1 (configuration not stated)
inactive: dose: 3.12 mg/kg/injection, schedule: Q01DX009 (ip), vehicle: acetone 92 % of control | dose: 3.12 mg/kg/injection, schedule: Q04DX003 (ip), vehicle: saline 103 % of control | dose: 6.25 mg/kg/injection, schedule: Q01DX009 (ip), vehicle: acetone 102 % of control | dose: 6.25 mg/kg/injection, schedule: Q04DX003 (ip), vehicle: saline 101 % of control | dose: 12.5 mg/kg/injection, schedule: Q04DX003 (ip), vehicle: saline 102 % of control

CSC(N)=NC1CCCCC1
inactive: [8] 103 % of control | [9] 107 % of control | dose: 12.5 mg/kg/injection, schedule: Q04DX002 (ip), vehicle: saline 109 % of control | dose: 25.0 mg/kg/injection, schedule: Q01DX009 (ip), vehicle: saline 100 % of control | dose: 25.0 mg/kg/injection, schedule: Q04DX002 (ip), vehicle: saline 105 % of control

Cc1ccc(S(=O)(=O)C2CCCC/C2=N\Nc2ccc([N+](=O)[O-])cc2[N+](=O)[O-])cc1 (configuration not stated)
inactive: dose: 100.0 mg/kg/injection, schedule: Q01DX001 (ip), vehicle: other 105 % of control | dose: 200.0 mg/kg/injection, schedule: Q01DX001 (ip), vehicle: other 103 % of control | dose: 400.0 mg/kg/injection, schedule: Q01DX001 (ip), vehicle: other 96 % of control

CC(=O)CC(=O)Nc1ccc(Cc2ccc(Br)cc2)cc1
inactive: [16] 96 % of control | [17] 95 % of control | [18] 91 % of control

Cc1ccc(S(=O)(=O)OC2CCC(C(C)(C)C)C(Cl)C2)cc1 (configuration not stated)
inactive: [13] 103 % of control | [14] 87 % of control | [15] 94 % of control
